According to paper PMC5935597 (Bioorganic & medicinal chemistry, 2018):
In brackets after ≈: the same amount, converted by molar mass. Like-named read-outs stand apart in the source and are kept apart here.

Tests used:
H. capsulatum [1] = settings: read-out: H. capsulatum IC50; cited from earlier work
[2] = test system: C. neoformans (H99 strain); settings: read-out: C. neoformans (H99 strain) IC50; cited from earlier work
Candida albicans = settings: cited from earlier work
Aspergillus fumigatus = settings: cited from earlier work
H. capsulatum [3] = assay type: cell-based, Histoplasma capsulatum; settings: for times more active than 41F5 against H. capsulatum: relative to 41F5; for activity against H. capsulatum evaluated comparatively at pH 5 and pH 7: pH 5 versus pH 7 (SM-S.2)
[4] = test system: C. neoformans (H99 strain); experiment: microbe, parasite or virus in culture; assay type: cell-based, Cryptococcus neoformans
Blastomyces dermatitidis = settings: cited from earlier work

For `O=C(CCC1CCCCC1)Nc1ncc(Cc2cccc3ccccc23)s1` [A], the IC50 (H. capsulatum [1]) is listed as 400 nM and the IC50 [2] is listed as > 10000 nM.

In the case of `Cc1ccc(Oc2ccccc2-c2csc(N=C3NCCCN3)n2)c(C)c1` [Abafungin], the “activity against Candida albicans” value (Candida albicans) is given as “active” and the “activity against Aspergillus fumigatus” value (Aspergillus fumigatus) is given as “active”.

For `O=C(Nc1ncc(Cc2ccccc2)s1)C1CCCCC1` [B], the IC50 (H. capsulatum [1]) is listed as 1600 nM.

For `O=C(CCC1CCCCC1)Nc1ncc(Cc2ccccc2)s1` [C], the IC50 (H. capsulatum [1]) is listed as 700 nM and the IC50 [2] is listed as > 10000 nM.

In the case of `O=C(Nc1ncc(Cc2cccc3ccsc23)s1)C1CCCCC1` [Compound 17b], the “times more active than 41F5 against H. capsulatum” value (H. capsulatum [3]) is reported as ~ 2 times and the “times more active than 41F5 against C. neoformans” value [4] is reported as ~ 2 times.

In the case of `O=C(CCC1CCCCC1)Nc1ncc(Cc2cccc3nsnc23)s1` [Compound 20a], the “activity against H. capsulatum evaluated comparatively at pH 5 and pH 7” value (H. capsulatum [3]) is reported as “No significant differences” and the “activity against C. neoformans evaluated comparatively at pH 5 and pH 7” value [4] is reported as “No significant differences”.

In the case of `O=C(CCC1CCCCC1)Nc1ncc(Cc2cccc3sccc23)s1` [Compound 22a], the “times more active than 41F5 against H. capsulatum” value (H. capsulatum [3]) is reported as ~ 2 times.

In the case of `O=C(Nc1ncc(Cc2cccc3sccc23)s1)C1CCCCC1` [Compound 22b], the “times more active than 41F5 against H. capsulatum” value (H. capsulatum [3]) is reported as ~ 2 times, the “times more active than 41F5 against C. neoformans” value [4] is reported as ~ 2 times and the IC50 ([4]; Cryptococcus neoformans, read-out: C. neoformans (H99 strain) IC50 [±SD]) is reported as 370 nM. For the same compound, the MIC ([4]; Cryptococcus neoformans, read-out: C. neoformans (H99 strain) MIC) was 1.25 µM (≈ 0.446 µg/mL).

With `O=C(CCC1CCCCC1)Nc1ncc(Cc2csc3ccccc23)s1` [Compound 23a] the “times more active than 41F5 against H. capsulatum” value (H. capsulatum [3]) was ~ 2 times.

In the case of `O=C(Nc1ncc(Cc2cccc3c2CCC3)s1)C1CCCCC1` [Compound 26b], the “times more active than 41F5 against H. capsulatum” value (H. capsulatum [3]) is reported as ~ 2 times and the “times more active than 41F5 against C. neoformans” value [4] is reported as ~ 2 times.

With `O=C(CCC1CCCCC1)Nc1ncc(Cc2ccnc3ccccc23)s1` [Compound 28a] the “activity against H. capsulatum evaluated comparatively at pH 5 and pH 7” value (H. capsulatum [3]) was “No significant differences” and the “activity against C. neoformans evaluated comparatively at pH 5 and pH 7” value [4] was “No significant differences”.

In the case of `O=C(CCC1CCCCC1)Nc1ncc(Cc2ccccn2)s1` [Compound 29a], the “activity against H. capsulatum evaluated comparatively at pH 5 and pH 7” value (H. capsulatum [3]) is reported as “No significant differences” and the “activity against C. neoformans evaluated comparatively at pH 5 and pH 7” value [4] is reported as “No significant differences”.

With `O=C(Nc1ncc(Cc2cccnc2)s1)C1CCCCC1` [Compound 31] the “activity against H. capsulatum evaluated comparatively at pH 5 and pH 7” value (H. capsulatum [3]) was “No significant differences” and the “activity against C. neoformans evaluated comparatively at pH 5 and pH 7” value [4] was “No significant differences”.

For `O=C(CCC1CCCCC1)Nc1ncc(Cc2ccncc2)s1` [Compound 32a], the “activity against H. capsulatum evaluated comparatively at pH 5 and pH 7” value (H. capsulatum [3]) was “No significant differences” and the “activity against C. neoformans evaluated comparatively at pH 5 and pH 7” value [4] was “No significant differences”.

For `O=C(c1cnc(NC(=O)C2CCCCC2)s1)c1cccc2ccccc12` [Compound 36b], the “times more active than 41F5 against H. capsulatum” value (H. capsulatum [3]) was ~ 2 times.

For `O=C(Nc1ncc(Cc2cccc3ccccc23)s1)C1CCCCC1` [Compound 41F5, N-[5-(1-naphthalenylmethyl)-2-thiazolyl]cyclohexanecarboxamide], the IC50 (H. capsulatum [1]) is listed as 400 nM, the IC50 [2] is listed as 400 nM and the “activity against Candida albicans” value (Candida albicans) is listed as “inactive”. For the same compound, the “activity against Aspergillus fumigatus” value (Aspergillus fumigatus) was “inactive” and the “activity against Blastomyces dermatitidis” value (Blastomyces dermatitidis) was “inactive”.
